Data set [1] has as its system M. tuberculosis. Briefly: High content assay of intracellular M. tuberculosis growth in infected RAW264.7 macrophages. Type of data set: cell-based, Mycobacterium tuberculosis H37Rv-LP.
The nature of data set [2]: HepG2 cytotoxicity (CellTiter-Glo, 72 h). Conditions: human. Type of data set: cell-based, human. Put shortly:
(§1)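 HepG2 cells received a 10-point three-fold compound dilution 24 h post-seeding (1% DMSO final), then 72 h exposure in glucose or galactose medium. CellTiter-Glo luminescence normalized to DMSO controls; TC50 (50% viability reduction) from Levenberg–Marquardt curve fits.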
Background: In ATP-based viability assays light output follows the ATP content of the culture.

The subject of data set [3] is M. tuberculosis. The data set can be described thus: Minimum inhibitory concentration in liquid medium (axenic culture). Type of data set: cell-based, Mycobacterium tuberculosis. The settings on record: Mycobacterium tuberculosis; for IC50: read-out: Anti-tubercular activity in axenic culture IC50.
The subject of data set [4] is non-replicating M. tuberculosis. More on the design: method as in Christophe et al., 2009. Conditions: ref Christophe et al., 2009; cited from earlier work.
For data set [5], the system named is RAW264.7 cells. The data set can be described thus: Macrophage viability in the same high content assay. The settings on record: for Intracellular RAW TC50 / Intracellular activity Cytotoxicity TC50: infected RAW264.7 macrophages; for Intracellular RAW TC50: SAR tables 4-8; for Intracellular activity Cytotoxicity TC50: 72 h; for selectivity index (SI): HepG2 cells and/or macrophages, cell line not specified.

For another data set, the system named is HepG2 cells. The data set can be described thus: HepG2 cytotoxicity (CellTiter-Glo, 72 h). Conditions: for HepG2 cytotoxicity TC50 Galactose / HepG2 cytotoxicity TC50 Glucose: human, 72 h; for selectivity (SI) for HepG2: HepG2 cytotoxicity / intracellular IC50. Type of data set: cell-based, human. In a few lines: as §1
Data set [6] has as its system M. tuberculosis. More on the design: method as in PMID 30466326. Conditions: inhibitor of M. tuberculosis ref 20; cited from earlier work.
For data set [7], the system named is RAW264.7 cells.
[8] abbreviates: Mycobacterium tuberculosis, RAW264.7, in RAW264.7 macrophages, SAR tables 4-8, read-out: Intracellular Mtb IC50.
Setting [9] is: HepG2 cytotoxicity IC50 Galactose.
Setting [10] is: HepG2 cytotoxicity IC50 Glucose.
The mark [11] stands for this setting: axenic culture, SAR tables 4-8, read-out: Extracellular IC90.
The mark [12] stands for this setting: Mycobacterium tuberculosis, RAW264.7, 72 h, M. tuberculosis in RAW264.7 cells, MOI 1, 72 h, read-out: Intracellular activity Anti-tubercular activity IC50.
The mark [13] stands for this setting: 120 h, extracellular, 5 days, OD590.
[14] abbreviates: 120 h, extracellular, 5 days, OD590, read-out: Anti-tubercular activity in axenic culture IC90.

Values after ≈ are worked out from the molar mass of the structure shown. Like-named read-outs stand apart in the source and are kept apart here. Marks after values point to notes of the source that are not given here. A value given as a limit tells only on which side of the number the result lay.

One may read the IC50 as the concentration at which inhibition is half-maximal. As a reminder, the IC90 is the concentration needed for an effect of 90%. As for `Cc1ccc(OCC(=O)N2CCCc3ccccc32)cc1` [TPN-0006208], in the data set with M. tuberculosis [1] (setting [8]), the IC50 came to 13 µM. Also, the IC50 at 72 h in data set [2] (setting [9]) and in data set [2] (setting [10]) was over 100 µM each time. In addition, in the data set with M. tuberculosis [3] (setting [11]), the IC90 was over 20 µM. In addition, in data set [4], the “activity against non-replicating M. tuberculosis” value was “had activity”. Moreover, the “Intracellular RAW TC50” value with RAW264.7 cells [5] is on record as 86 ± 1.0 ^b µM.

On to `O=C(CSc1ccc(Cl)cc1)Nc1ccc(F)c(Cl)c1` [TPN-0006216], for which, in the data set with M. tuberculosis [1], the “activity against intracellular M. tuberculosis” value is “good intracellular activity”. The results for the IC50 with M. tuberculosis [1] (setting [12]), in the data set on M. tuberculosis [1] (setting [8]) and in the data set on M. tuberculosis [3] (setting [13]) were 2.8 ± 0.78 µM, 2.4 ± 0.5 µM and over 20 µM, respectively. In addition, the IC50 at 72 h in data set [2] (setting [9]) worked out at 33 ± 4 µM; in data set [2] (setting [10]), 44 ± 2 µM. Further, in the data set with HepG2 cells, the “HepG2 cytotoxicity TC50 Galactose” value is on record as 33 ± 4 ^b µM. For the same compound, the “HepG2 cytotoxicity TC50 Glucose” value in the data set on HepG2 cells is recorded as 44 ± 2 ^b µM. In addition, the IC90 in the data set with M. tuberculosis [3] (setting [14]) was over 20 µM; in the data set on M. tuberculosis [3] (setting [11]), over 20 µM; with M. tuberculosis [6], 6.9 µg/mL (≈ 20.9 µM). For the same compound, in the data set on RAW264.7 cells [5], the “Intracellular activity Cytotoxicity TC50” value is >100 ^d µM. For the same compound, the results for the “Intracellular RAW TC50” value with RAW264.7 cells [5] and with RAW264.7 cells [5] (listed as 12) were >100 ^b µM and over 100 µM, respectively. Moreover, the “selectivity index (TC50/IC50)” value in the data set with RAW264.7 cells [5] (macrophage TC50 / intracellular IC50) is reported as over 42.

As for `O=C(Nc1ccc(Cl)cc1)Nc1ccc(Nc2ccccc2)cc1` [TPN-0073077], the IC50 at 72 h in data set [2] (setting [9]) and in data set [2] (setting [10]) was over 100 µM throughout. For the same compound, the IC90 with M. tuberculosis [3] (setting [11]) is over 20 µM. Besides, in the data set with RAW264.7 cells [7], the “cytotoxicity to macrophages” value is “cytotoxic”. The “Intracellular RAW TC50” value in the data set with RAW264.7 cells [5] is given as 68 ± 23 ^b µM.

In the case of `COc1ccc(OCC(=O)Nc2sc3c(c2C(=O)NC2CCS(=O)(=O)C2)CCCC3)cc1` (centres unmarked) [TPN-0073584], the IC50 with M. tuberculosis [1] (setting [12]) was determined as 5.1 ± 1.7 µM. Besides, the IC50 in the data set with M. tuberculosis [1] (setting [8]) was 5.1 ± 1.7 µM. Also, the IC50 at 72 h in data set [2] (setting [9]) is over 100 µM. The IC50 at 72 h in data set [2] (setting [10]) is over 100 µM. For the same compound, in the data set on HepG2 cells, the “selectivity (SI) for HepG2” value is given as 20, the “HepG2 cytotoxicity TC50 Galactose” value is recorded as >100 ^c µM and the “HepG2 cytotoxicity TC50 Glucose” value was >100 ^c µM. Besides, in the data set with M. tuberculosis [3] (setting [13]), the concentration for half-maximal inhibition (IC50) is over 20 µM. Also, the IC90 in the data set with M. tuberculosis [3] (setting [14]) is over 20 µM. Besides, the IC90 in the data set on M. tuberculosis [3] (setting [11]) is over 20 µM. Moreover, in the data set with RAW264.7 cells [5], the “selectivity index (SI)” value is reported as over 10, the “Intracellular activity Cytotoxicity TC50” value is recorded as >100 ^b µM and the “Intracellular RAW TC50” value was >100 ^c µM.

On to `CCc1ccccc1NC(=O)c1c(NC(=O)c2cccc(Cl)c2)sc2c1CCC2` [TPN-0073585], for which the IC50 is 0.4 ± 0.11 µM in the data set with M. tuberculosis [1] (setting [12]); under 5 µM with M. tuberculosis [1] (in RAW264.7 macrophages, SAR tables 4-8, listed as 29, read-out: Intracellular Mtb IC50); over 5 µM in the data set on M. tuberculosis [3] (setting [13]). The IC50 at 72 h in data set [2] (setting [9]) and in data set [2] (setting [10]) was over 25 µM each time. The “selectivity (SI) for HepG2” value with HepG2 cells is on record as over 60. The “HepG2 cytotoxicity TC50 Galactose” value in the data set on HepG2 cells is recorded as >25 ^c µM. Besides, the “HepG2 cytotoxicity TC50 Glucose” value in the data set with HepG2 cells is >25 ^c µM. Besides, the IC90 with M. tuberculosis [3] (setting [14]) and with M. tuberculosis [3] (setting [11]) was over 5 µM in each case. Further, the “selectivity index (SI)” value in the data set with RAW264.7 cells [5] is recorded as over 10. For the same compound, the “Intracellular activity Cytotoxicity TC50” value in the data set with RAW264.7 cells [5] is 9.4 ± 1.9 ^c µM. Also, the “Intracellular RAW TC50” value with RAW264.7 cells [5] was 9.4 ± 1.9 ^c µM.

For the compound `COC(=O)c1c(NC(NC(=O)c2cccs2)C(=O)c2ccccc2)sc(C(C)=O)c1C` (centres unmarked) [TPN-0073588], the IC50 in the data set on M. tuberculosis [1] (setting [12]) worked out at 6.5 ± 1.7 µM. Moreover, in the data set with M. tuberculosis [1] (setting [8]), the IC50 came out at 6.5 ± 1.7 µM. The compound further yielded an IC50 at 72 h in data set [2] (setting [9]) of over 100 µM. Further, the midpoint of inhibition in data set [2] (setting [10]), the IC50 at 72 h, lay at 93 ± 5.5 µM. In the data set on HepG2 cells, the “selectivity (SI) for HepG2” value turned out to be 15, the “HepG2 cytotoxicity TC50 Galactose” value is >100 ^c µM and the “HepG2 cytotoxicity TC50 Glucose” value was >100 ^b µM. Moreover, in the data set on M. tuberculosis [3] (setting [13]), the IC50 was over 20 µM. Besides, in the data set with M. tuberculosis [3] (setting [14]), the IC90 was over 20 µM. Further, the IC90 with M. tuberculosis [3] (setting [11]) is over 20 µM. In the data set on RAW264.7 cells [5], the “selectivity index (SI)” value was over 10, the “Intracellular activity Cytotoxicity TC50” value was 67 ± 8.5 ^b µM and the “Intracellular RAW TC50” value is reported as 67 ± 8.5 ^b µM.

The values are drawn from article PMC8762250, “Identification of Novel Chemical Scaffolds that Inhibit the Growth of Mycobacterium tuberculosis in Macrophages” (Frontiers in Pharmacology, 2022).
